# Target: T1, AhR (Homo sapiens, UniProt P35869)
# T1 sequence (P35869 11-848): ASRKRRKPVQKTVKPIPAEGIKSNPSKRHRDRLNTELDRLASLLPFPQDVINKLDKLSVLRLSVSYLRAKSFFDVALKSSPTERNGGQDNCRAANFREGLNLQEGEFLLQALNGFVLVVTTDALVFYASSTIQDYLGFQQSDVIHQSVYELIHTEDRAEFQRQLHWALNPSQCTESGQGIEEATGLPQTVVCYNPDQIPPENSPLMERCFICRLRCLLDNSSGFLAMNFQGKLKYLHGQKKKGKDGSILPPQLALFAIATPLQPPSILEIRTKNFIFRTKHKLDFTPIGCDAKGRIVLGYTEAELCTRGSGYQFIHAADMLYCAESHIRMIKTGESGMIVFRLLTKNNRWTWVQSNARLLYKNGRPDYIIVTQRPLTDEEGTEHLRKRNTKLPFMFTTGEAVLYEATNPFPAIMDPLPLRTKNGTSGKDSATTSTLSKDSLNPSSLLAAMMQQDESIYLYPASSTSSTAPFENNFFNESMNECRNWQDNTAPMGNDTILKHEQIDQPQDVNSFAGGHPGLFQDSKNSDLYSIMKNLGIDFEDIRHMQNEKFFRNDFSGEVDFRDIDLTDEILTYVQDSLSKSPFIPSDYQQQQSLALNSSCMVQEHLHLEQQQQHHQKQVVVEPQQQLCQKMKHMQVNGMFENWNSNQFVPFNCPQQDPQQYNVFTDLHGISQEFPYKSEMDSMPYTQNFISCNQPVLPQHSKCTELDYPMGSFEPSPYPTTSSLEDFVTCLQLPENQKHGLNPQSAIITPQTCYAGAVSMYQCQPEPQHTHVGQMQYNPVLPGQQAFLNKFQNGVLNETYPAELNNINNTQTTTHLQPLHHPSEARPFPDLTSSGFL
# Assay: In Vitro Assay 1: XRE-luciferase reporter assay, antagonism in human cell line (HepG2)
# Details: Assay 1: AhR-Luc Human Antagonism (IC50, nM), unmarked values: kynurenine 200 μM, 6 hours
row,SMILES,IC50 [nM]
1,"OC[C@@H]1CN(c2cc(-c3ccc(C(F)(F)F)cc3)nc(-c3cccnc3)n2)CCN1 [Example 308, (S)-(4-(2-(pyridin-3-yl)-6-(4-(trifluoromethyl)phenyl)pyrimidin-4-yl)piperazin-2-yl)methanol]",100 to 1000
2,"OC[C@@H]1CN(c2cc(-c3ccc(C(F)(F)F)cc3)nc(-c3cccnc3)n2)CCO1 [Example 279, (S)-(4-(2-(pyridin-3-yl)-6-(4-(trifluoromethyl)phenyl)pyrimidin-4-yl)morpholin-2-yl)methanol]",< 10
3,"OC[C@@H]1CCN(c2cc(-c3ccc(Cl)cc3)nc(-c3cccnc3)n2)C[C@@H]1F [Example 251, ((3R,4S)-1-(6-(4-chlorophenyl)-2-(pyridin-3-yl)pyrimidin-4-yl)-3-fluoropiperidin-4-yl)methanol]",< 10
4,"CS(=O)(=O)C1CCN(c2cc(-c3ccc(Cl)cc3)nc(-c3cccnc3)n2)CC1 [Example 326, 4-(4-chlorophenyl)-6-(4-(methylsulfonyl)piperidin-1-yl)-2-(pyridin-3-yl)pyrimidine]",10 to 100
5,"O[C@H]1CCN(c2cc(-c3ccc(Cl)cc3)nc(-c3ccnnc3)n2)C1 [Example 329, (S)-1-(6-(4-chlorophenyl)-2-(pyridazin-4-yl)pyrimidin-4-yl)pyrrolidin-3-ol]",100 to 1000
6,"OC[C@H]1CCN(c2cc(-c3ccc(C(F)(F)F)cc3)nc(-c3cccnc3)n2)C[C@H]1O [Example 248, (3S,4R)-4-(hydroxymethyl)-1-(2-(pyridin-3-yl)-6-(4-(trifluoromethyl)phenyl)pyrimidin-4-yl)piperidin-3-ol]",10 to 100
7,"Cn1cc(-c2nc(-c3ccc(Cl)cc3)cc(N3CC[C@@H](C(=O)O)C3)n2)cn1 [Example 313, (R)-1-(6-(4-chlorophenyl)-2-(1-methyl-1H-pyrazol-4-yl)pyrimidin-4-yl)pyrrolidine-3-carboxylic acid]",> 1000

# Same assay, conditions: Assay 1: AhR-Luc Human Antagonism (IC50, nM), values marked *: kynurenine 50 μM, 6 hours
row,SMILES,IC50 [nM]
1,"Clc1ccc(-c2cc(NCCN3CCNCC3)nc(-c3cccnc3)n2)cc1 [Example 88, 6-(4-chlorophenyl)-N-(2-(piperazin-1-yl)ethyl)-2-(pyridin-3-yl)pyrimidin-4-amine]",> 1000
2,"CCNc1cc(-c2ccc(Cl)cc2)nc(-c2cccnc2)n1 [Example 21, 6-(4-chlorophenyl)-N-ethyl-2-(pyridin-3-yl)pyrimidin-4-amine]",100 to 1000
3,"CC(C)N1C[C@@H](O)[C@H](Nc2cc(-c3ccc(Cl)cc3)nc(-c3cccnc3)n2)C1 (relative stereo) [Example 209, Trans-4-((6-(4-chlorophenyl)-2-(pyridin-3-yl)pyrimidin-4-yl)amino)-1-isopropylpyrrolidin-3-ol]",> 1000
4,"Cc1ccccc1N1CCN(c2cc(-c3ccc(Cl)cc3)nc(-c3cccnc3)n2)CC1 [Example 114, 4-(4-chlorophenyl)-2-(pyridin-3-yl)-6-(4-(o-tolyl)piperazin-1-yl)pyrimidine]",> 1000
5,"Clc1ccc(-c2cc(N3CCN(CCN4CCOCC4)CC3)nc(-c3cccnc3)n2)cc1 [Example 91, 4-(2-(4-(6-(4-chlorophenyl)-2-(pyridin-3-yl)pyrimidin-4-yl)piperazin-1-yl)ethyl)morpholine]",10 to 100
6,"Clc1ccc(-c2cc(NCc3ccncc3)nc(-c3cccnc3)n2)cc1 [Example 33, 6-(4-chlorophenyl)-2-(pyridin-3-yl)-N-(pyridin-4-ylmethyl)pyrimidin-4-amine]",100 to 1000
7,"Clc1ccc(-c2cc(N3CCN(c4ccccc4)CC3)nc(-c3cccnc3)n2)cc1 [Example 95, 4-(4-chlorophenyl)-6-(4-phenylpiperazin-1-yl)-2-(pyridin-3-yl)pyrimidine]",10 to 100
8,"FC1(F)CCN(c2cc(-c3ccc(Cl)cc3)nc(-c3cccnc3)n2)C1 [Example 198, 4-(4-chlorophenyl)-6-(3,3-difluoropyrrolidin-1-yl)-2-(pyridin-3-yl)pyrimidine]",10 to 100
9,"COC(=O)[C@@H]1CCCN1c1cc(-c2ccc(Cl)cc2)nc(-c2cccnc2)n1 [Example 142, methyl (6-(4-chlorophenyl)-2-(pyridin-3-yl)pyrimidin-4-yl)prolinate]",100 to 1000

# Source: US20230150970A1, “AMINOPYRIMIDINE DERIVATIVES AND THEIR USE AS ARYL HYDROCARBON RECEPTOR MODULATORS” (DONG-A ST CO., LTD., priority 2020, published 2023)
